In the kinase profiling compilation of Christmann-Franck et al. (2016):

Tests used:
Test in all cases: radiometric filter-binding kinase assay, Kinase HotSpot
Conditions in all cases: compound 0.5 µM; ATP 10 µM
CDK3 CCNE1 (human) = CDK3 CCNE1 (human) (UniProt Q00526+P24864)
PHKG2 (human) = PHKG2 (human) (UniProt P15735)
MUSK (human) = MUSK (human) (UniProt O15146)
TYRO3 (human) = TYRO3 (human) (UniProt Q06418)
AKT3 (human) = AKT3 (human) (UniProt Q9Y243)
ROS1 (human) = ROS1 (human) (UniProt P08922)
PRKX (human) = PRKX (human) (UniProt P51817)
CSNK1G2 (human) = CSNK1G2 (human) (UniProt P78368)
EPHA7 (human) = EPHA7 (human) (UniProt Q15375)
PLK2 (human) = PLK2 (human) (UniProt Q9NYY3)
MAP3K5 (human) = MAP3K5 (human) (UniProt Q99683)
ACVRL1 (human) = ACVRL1 (human) (UniProt P37023)
EPHA8 (human) = EPHA8 (human) (UniProt P29322)
CSF1R (human) = CSF1R (human) (UniProt P07333)
CHEK2 (human) = CHEK2 (human) (UniProt O96017)
CSNK2A2 (human) = CSNK2A2 (human) (UniProt P19784)
CDK2 CCNA2 (human) = CDK2 CCNA2 (human) (UniProt P24941+P20248)
[1] = test system: MAP2K6 (human), P52564 [S207E/T211E]
CAMK4 (human) = CAMK4 (human) (UniProt Q16566)
TGFBR1 (human) = TGFBR1 (human) (UniProt P36897)
MAPK1 (human) = MAPK1 (human) (UniProt P28482)
TAOK1 (human) = TAOK1 (human) (UniProt Q7L7X3)
RPS6KA2 KD1 KD2 (human) = RPS6KA2 KD1 KD2 (human) (UniProt Q15349)
CLK4 (human) = CLK4 (human) (UniProt Q9HAZ1)
DYRK3 (human) = DYRK3 (human) (UniProt O43781)
IRAK1 (human) = IRAK1 (human) (UniProt P51617)
SRMS (human) = SRMS (human) (UniProt Q9H3Y6)
ULK1 (human) = ULK1 (human) (UniProt O75385)
STK3 (human) = STK3 (human) (UniProt Q13188)
FER (human) = FER (human) (UniProt P16591)
NUAK1 (human) = NUAK1 (human) (UniProt O60285)
STK39 (human) = STK39 (human) (UniProt Q9UEW8)
PAK7 (human) = PAK7 (human) (UniProt Q9P286)
CDK4 CCND1 (human) = CDK4 CCND1 (human) (UniProt P24385+P11802)
PRKG2 (human) = PRKG2 (human) (UniProt Q13237)
EPHB2 (human) = EPHB2 (human) (UniProt P29323)
MARK2 (human) = MARK2 (human) (UniProt Q7KZI7)
PAK3 (human) = PAK3 (human) (UniProt O75914)
PBK (human) = PBK (human) (UniProt Q96KB5)
TEK (human) = TEK (human) (UniProt Q02763)
CDK1 CCNB1 (human) = CDK1 CCNB1 (human) (UniProt P06493+P14635)

CDK3 CCNE1 (human), sequence (P24864 whole entry, looked up): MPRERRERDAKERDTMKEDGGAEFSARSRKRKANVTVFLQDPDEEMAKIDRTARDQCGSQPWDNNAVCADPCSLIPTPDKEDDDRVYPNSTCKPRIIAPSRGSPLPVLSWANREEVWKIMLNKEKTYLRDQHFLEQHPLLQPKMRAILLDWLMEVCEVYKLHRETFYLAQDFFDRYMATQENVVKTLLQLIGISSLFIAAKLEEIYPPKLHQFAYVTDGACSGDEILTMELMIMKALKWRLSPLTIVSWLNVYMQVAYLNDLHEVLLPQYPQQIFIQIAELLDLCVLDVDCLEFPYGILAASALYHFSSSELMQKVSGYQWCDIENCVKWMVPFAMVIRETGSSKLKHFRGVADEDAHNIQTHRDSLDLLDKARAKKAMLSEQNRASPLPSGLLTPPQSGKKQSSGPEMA
CDK3 CCNE1 (human), sequence (Q00526 whole entry, looked up): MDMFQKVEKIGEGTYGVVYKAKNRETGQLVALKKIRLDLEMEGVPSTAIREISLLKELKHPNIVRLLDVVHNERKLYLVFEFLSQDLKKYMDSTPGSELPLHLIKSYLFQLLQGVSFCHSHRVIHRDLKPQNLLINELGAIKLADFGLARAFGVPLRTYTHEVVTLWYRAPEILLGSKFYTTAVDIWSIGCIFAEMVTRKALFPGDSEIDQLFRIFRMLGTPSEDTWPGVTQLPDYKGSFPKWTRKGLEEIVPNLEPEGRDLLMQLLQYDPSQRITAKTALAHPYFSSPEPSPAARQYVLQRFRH
EPHA7 (human), sequence (Q15375 whole entry, looked up): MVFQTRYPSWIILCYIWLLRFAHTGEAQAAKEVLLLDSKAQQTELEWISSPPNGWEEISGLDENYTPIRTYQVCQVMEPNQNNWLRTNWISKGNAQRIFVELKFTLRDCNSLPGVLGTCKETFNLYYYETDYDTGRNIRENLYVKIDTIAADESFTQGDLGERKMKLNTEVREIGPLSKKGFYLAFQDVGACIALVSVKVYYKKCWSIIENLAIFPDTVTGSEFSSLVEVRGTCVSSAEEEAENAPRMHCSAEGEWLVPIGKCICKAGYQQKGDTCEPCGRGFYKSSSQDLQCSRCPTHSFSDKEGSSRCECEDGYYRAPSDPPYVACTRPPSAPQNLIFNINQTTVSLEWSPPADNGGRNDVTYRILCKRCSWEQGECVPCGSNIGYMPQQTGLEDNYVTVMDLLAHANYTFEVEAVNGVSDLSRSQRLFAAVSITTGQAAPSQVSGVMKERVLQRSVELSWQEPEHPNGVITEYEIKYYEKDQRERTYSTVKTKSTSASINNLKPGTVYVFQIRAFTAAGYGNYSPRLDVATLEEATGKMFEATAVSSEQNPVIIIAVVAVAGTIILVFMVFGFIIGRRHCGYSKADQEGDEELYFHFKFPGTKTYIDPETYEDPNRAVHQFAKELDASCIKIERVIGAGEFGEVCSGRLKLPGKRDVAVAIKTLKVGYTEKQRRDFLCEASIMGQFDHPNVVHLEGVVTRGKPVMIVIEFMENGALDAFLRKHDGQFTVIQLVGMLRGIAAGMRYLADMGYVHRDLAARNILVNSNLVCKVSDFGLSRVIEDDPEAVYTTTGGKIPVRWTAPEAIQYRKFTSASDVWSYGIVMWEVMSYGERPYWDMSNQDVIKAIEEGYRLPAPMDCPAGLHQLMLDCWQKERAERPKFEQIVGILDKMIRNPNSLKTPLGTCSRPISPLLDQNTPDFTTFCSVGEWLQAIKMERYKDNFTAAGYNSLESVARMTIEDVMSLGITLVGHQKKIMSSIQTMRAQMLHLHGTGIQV
CLK4 (human), sequence (Q9HAZ1 whole entry, looked up): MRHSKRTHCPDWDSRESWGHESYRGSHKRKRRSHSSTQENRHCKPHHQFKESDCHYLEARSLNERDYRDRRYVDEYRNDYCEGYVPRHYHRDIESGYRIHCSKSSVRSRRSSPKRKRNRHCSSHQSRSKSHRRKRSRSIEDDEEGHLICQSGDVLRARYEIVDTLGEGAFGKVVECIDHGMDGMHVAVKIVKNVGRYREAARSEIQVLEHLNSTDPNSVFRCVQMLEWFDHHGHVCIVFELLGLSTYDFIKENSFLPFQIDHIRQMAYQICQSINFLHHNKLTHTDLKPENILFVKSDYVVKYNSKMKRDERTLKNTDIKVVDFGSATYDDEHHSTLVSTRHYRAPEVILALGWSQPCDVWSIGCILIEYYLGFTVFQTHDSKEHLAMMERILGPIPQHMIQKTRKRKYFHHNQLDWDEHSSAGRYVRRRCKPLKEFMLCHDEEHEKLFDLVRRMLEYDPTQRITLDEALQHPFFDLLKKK
IRAK1 (human), sequence (P51617 whole entry, looked up): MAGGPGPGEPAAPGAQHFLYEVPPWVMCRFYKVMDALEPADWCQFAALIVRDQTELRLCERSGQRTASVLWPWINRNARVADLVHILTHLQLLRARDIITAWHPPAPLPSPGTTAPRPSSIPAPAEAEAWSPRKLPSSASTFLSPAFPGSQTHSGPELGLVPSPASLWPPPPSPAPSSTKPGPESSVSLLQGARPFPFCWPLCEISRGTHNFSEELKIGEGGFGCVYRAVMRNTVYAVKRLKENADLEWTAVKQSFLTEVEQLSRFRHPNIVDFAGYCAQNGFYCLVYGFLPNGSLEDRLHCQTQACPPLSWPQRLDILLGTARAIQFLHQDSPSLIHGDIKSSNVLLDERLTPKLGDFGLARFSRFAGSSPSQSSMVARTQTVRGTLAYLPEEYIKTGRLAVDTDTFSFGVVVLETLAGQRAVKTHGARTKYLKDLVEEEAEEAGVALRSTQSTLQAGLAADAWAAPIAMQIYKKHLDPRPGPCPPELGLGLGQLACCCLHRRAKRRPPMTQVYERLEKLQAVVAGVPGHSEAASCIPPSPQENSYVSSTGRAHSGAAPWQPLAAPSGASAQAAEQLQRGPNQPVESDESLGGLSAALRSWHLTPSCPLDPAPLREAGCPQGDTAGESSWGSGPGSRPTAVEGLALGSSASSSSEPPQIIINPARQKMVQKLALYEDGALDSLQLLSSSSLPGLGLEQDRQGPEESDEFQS
ACVRL1 (human), sequence (P37023 whole entry, looked up): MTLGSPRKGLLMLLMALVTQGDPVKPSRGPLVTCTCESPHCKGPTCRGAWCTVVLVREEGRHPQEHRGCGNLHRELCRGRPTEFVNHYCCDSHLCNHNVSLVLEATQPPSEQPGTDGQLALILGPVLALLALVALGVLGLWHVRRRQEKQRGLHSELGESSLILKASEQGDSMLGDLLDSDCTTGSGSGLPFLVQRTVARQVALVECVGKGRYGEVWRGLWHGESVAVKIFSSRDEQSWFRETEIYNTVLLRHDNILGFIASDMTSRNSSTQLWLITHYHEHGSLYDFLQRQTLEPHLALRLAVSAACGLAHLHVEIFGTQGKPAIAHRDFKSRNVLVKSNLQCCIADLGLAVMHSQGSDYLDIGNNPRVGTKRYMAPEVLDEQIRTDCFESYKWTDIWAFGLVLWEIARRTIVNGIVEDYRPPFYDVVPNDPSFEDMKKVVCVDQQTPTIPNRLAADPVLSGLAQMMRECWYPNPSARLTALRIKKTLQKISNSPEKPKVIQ
CDK2 CCNA2 (human), sequence (P20248 whole entry, looked up, other chains not shown): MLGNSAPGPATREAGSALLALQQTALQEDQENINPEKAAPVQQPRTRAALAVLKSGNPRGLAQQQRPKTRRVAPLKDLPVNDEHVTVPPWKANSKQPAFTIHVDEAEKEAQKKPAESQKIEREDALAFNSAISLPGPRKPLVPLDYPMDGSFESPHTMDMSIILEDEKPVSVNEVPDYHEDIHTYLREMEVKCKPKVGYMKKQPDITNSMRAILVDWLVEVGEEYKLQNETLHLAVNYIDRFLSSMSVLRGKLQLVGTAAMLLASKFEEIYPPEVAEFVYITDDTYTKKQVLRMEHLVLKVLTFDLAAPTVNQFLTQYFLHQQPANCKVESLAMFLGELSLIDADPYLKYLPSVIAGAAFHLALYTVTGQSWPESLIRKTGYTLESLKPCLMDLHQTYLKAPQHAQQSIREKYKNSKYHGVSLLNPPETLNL
FER (human), sequence (P16591 whole entry, looked up): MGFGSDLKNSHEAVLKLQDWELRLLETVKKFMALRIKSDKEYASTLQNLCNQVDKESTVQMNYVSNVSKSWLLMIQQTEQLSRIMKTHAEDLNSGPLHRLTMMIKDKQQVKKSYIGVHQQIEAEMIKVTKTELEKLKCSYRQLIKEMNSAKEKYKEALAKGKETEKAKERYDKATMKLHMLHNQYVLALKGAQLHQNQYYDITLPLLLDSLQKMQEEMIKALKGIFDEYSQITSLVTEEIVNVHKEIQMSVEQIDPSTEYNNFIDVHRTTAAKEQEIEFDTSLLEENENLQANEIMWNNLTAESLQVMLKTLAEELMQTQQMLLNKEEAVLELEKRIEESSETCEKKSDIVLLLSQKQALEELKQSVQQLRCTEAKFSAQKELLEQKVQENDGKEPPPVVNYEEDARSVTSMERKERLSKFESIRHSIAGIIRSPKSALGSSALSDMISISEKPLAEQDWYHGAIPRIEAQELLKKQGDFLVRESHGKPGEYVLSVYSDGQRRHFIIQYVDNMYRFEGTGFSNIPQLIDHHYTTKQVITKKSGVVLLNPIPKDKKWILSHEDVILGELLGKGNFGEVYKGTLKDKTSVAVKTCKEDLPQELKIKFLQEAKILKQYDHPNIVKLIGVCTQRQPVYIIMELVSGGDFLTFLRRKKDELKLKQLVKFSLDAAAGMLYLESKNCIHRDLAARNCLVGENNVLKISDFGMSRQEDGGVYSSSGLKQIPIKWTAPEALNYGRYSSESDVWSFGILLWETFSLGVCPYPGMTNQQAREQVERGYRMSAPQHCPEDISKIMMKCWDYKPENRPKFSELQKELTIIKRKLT
MAP2K6 (human), P52564 [S207E/T211E], sequence (P52564 whole entry S207E/T211E, looked up): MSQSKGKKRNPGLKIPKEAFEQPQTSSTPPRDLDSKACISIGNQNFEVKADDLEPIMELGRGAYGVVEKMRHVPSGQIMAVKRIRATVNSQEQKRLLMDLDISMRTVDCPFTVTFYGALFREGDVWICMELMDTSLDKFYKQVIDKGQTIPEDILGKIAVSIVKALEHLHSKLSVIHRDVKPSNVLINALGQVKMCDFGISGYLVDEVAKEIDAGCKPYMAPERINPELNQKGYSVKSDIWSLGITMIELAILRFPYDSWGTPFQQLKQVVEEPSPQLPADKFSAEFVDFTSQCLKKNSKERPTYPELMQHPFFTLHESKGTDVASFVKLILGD

Row | Structure (SMILES) | residual activity (CDK3 CCNE1 (human)) [%] | residual activity (PHKG2 (human)) [%] | residual activity (MUSK (human)) [%] | residual activity (TYRO3 (human)) [%] | residual activity (AKT3 (human)) [%] | residual activity (ROS1 (human)) [%] | residual activity (PRKX (human)) [%] | residual activity (CSNK1G2 (human)) [%] | residual activity (EPHA7 (human)) [%] | residual activity (PLK2 (human)) [%] | residual activity (MAP3K5 (human)) [%] | residual activity (ACVRL1 (human)) [%] | residual activity (EPHA8 (human)) [%] | residual activity (CSF1R (human)) [%] | residual activity (CHEK2 (human)) [%] | residual activity (CSNK2A2 (human)) [%] | residual activity (CDK2 CCNA2 (human)) [%] | residual activity [1] [%] | residual activity (CAMK4 (human)) [%] | residual activity (TGFBR1 (human)) [%] | other results
1 | CO[C@@H]1[C@H](N(C)C(=O)c2ccccc2)C[C@H]2O[C@]1(C)n1c3ccccc3c3c4c(c5c6ccccc6n2c5c31)C(=O)NC4 | 81.9 | 79.7 | 44.6 | 98.8 | 55.1 | 6.53 | 55.4 | 98.3 | 87.2 | 97.5 | 101 | 94.3 | 94.1 | 6.65 | 85.1 | 87.8 | 66.6 | 91.4 | 103 | 98.7 | residual activity (MAPK1 (human)): 88.8%; residual activity (TAOK1 (human)): 60.8%; residual activity (RPS6KA2 KD1 KD2 (human)): 3.06%; residual activity (CLK4 (human)): 22.6%; residual activity (DYRK3 (human)): 98.5%; residual activity (IRAK1 (human)): 86.3%; residual activity (SRMS (human)): 97.6%; residual activity (ULK1 (human)): 99.2%; residual activity (STK3 (human)): 1.93%; residual activity (FER (human)): 22.4%; residual activity (NUAK1 (human)): 2.71%; residual activity (STK39 (human)): 96%; residual activity (PAK7 (human)): 90.4%
2 | O=C1c2ccccc2-c2nc3nnnn3nc21 | 73.4 | 96.1 | 107 | 33.3 | 81.2 | 91.1 | 94.3 | 82.2 | 81.9 | 37.3 | 106 | 105 | 92.6 | 11.6 | 54.7 | 76.2 | 70.3 | 85.7 | 85.4 | 107 | residual activity (CDK4 CCND1 (human)): 59.9%; residual activity (PRKG2 (human)): 140%; residual activity (EPHB2 (human)): 86.1%; residual activity (MARK2 (human)): 94.2%; residual activity (MAPK1 (human)): 87.5%; residual activity (TAOK1 (human)): 90.2%; residual activity (RPS6KA2 KD1 KD2 (human)): 89.1%; residual activity (CLK4 (human)): 78.3%; residual activity (DYRK3 (human)): 88.6%; residual activity (IRAK1 (human)): 77.6%; residual activity (SRMS (human)): 6.33%; residual activity (ULK1 (human)): 107%; residual activity (PAK3 (human)): 97.1%; residual activity (PBK (human)): 64.5%; residual activity (TEK (human)): 4.27%; residual activity (FER (human)): 89.1%; residual activity (NUAK1 (human)): 89.8%; residual activity (STK39 (human)): 89.2%; residual activity (CDK1 CCNB1 (human)): 48%; residual activity (PAK7 (human)): 93.4%
